Patent US4071411A, “Antitumor antibiotics aclacinomycins A and B [RD-9187A]” (priority 1974, dated 1978)
In brackets after ≈: the same amount, converted by molar mass. Entries after “also recorded” stand apart in the source; their conditions may differ.

Key:
various animal tumors = assay: antitumor activity in animal tumors (summary in words); type: in vivo; conditions: experimental animal tumors
[1] = test system: Gram-positive bacteria and yeasts; assay: antimicrobial activity (summary in words); type: cell-based
Rat = assay: acute toxicity, single injection; type: in vivo; conditions: rats
[2] = acute toxicity, single injection; type: in vivo, Rat; conditions: rat, in vivo, single injection
lymphoma 6C3HED = lymphoma 6C3HED in mice (summary in words); type: in vivo
[3] = test system: cultured mammalian tumor cells; assay: growth of tumor cells in culture (summary in words); type: cell-based
[4] = basicity and lipophilicity
leukemia P388 = leukemia P388 in mice (summary in words); type: in vivo
[5] = test system: nucleic acid biosynthesis (L1210 cells); type: cell-based, mice; conditions: below 1 mcg./ml. in the medium, 60 min.
Vaccinia virus = assay: microbe, parasite or virus in culture; type: cell-based
[6] = test system: P388 cells or L1210 cells; assay: survival of BDF1 mice inoculated with P388 or L1210 cells; type: in vivo; conditions: for T/C / 30 day survivors / Mean survival time: daily for 10 days; for 30 day survivors: control 0/8; for Mean survival time: control 10.0
Experimental: 2. […] For example, when BDF1 mice weighing 18 to 22 grams are inoculated with 1 × 10^6 cells of P388 cells or 5 × 10^5 cells of L1210 cells intraperitoneally and aclacinomycin A and B and aclacinomycin A-DNA complex are administered intraperitoneally once daily for 10 days consecutively 24 hours after the inoculation, the survival time of the mice is prolonged remarkably at the rate of over 150% in a dosage range of 0.5 to 5 mg./kg. of body weight per day compared with control mice receiving no antibiotic, as shown in the following table: […]

Can. albicans IAM 4905 = assay: antimicrobial spectrum, broth dilution method; type: cell-based; conditions: Candida albicans, IAM4905; broth dilution; read-out: Minimum Inhibitory Concentration
Experimental: (§1) 1. The antimicrobial spectrum of aclacinomycins A and B was determined by the broth dilution method as follows: […]

Strept. faecalis = assay: antimicrobial spectrum, broth dilution method; type: cell-based; conditions: Enterococcus faecalis; broth dilution; read-out: Minimum Inhibitory Concentration
Experimental: as §1

B. megaterium = assay: antimicrobial spectrum, broth dilution method; type: cell-based; conditions: Priestia megaterium; broth dilution; read-out: Minimum Inhibitory Concentration
Experimental: as §1

[7] = test system: Bacillus subtilis ATCC 6633; assay: antimicrobial spectrum, broth dilution method; type: cell-based; conditions: ATCC6633, broth dilution, read-out: Minimum Inhibitory Concentration
Experimental: as §1

Staph. aureus Smith = assay: antimicrobial spectrum, broth dilution method; type: cell-based; conditions: Staphylococcus aureus; broth dilution; read-out: Minimum Inhibitory Concentration
Experimental: as §1

Diplo. pneumoniae Type 1 = assay: antimicrobial spectrum, broth dilution method; type: cell-based; conditions: Streptococcus pneumoniae, TYPE1; broth dilution; read-out: Minimum Inhibitory Concentration
Experimental: as §1

E. coli K12 = assay: antimicrobial spectrum, broth dilution method; type: cell-based; conditions: Escherichia coli, K12; broth dilution; read-out: Minimum Inhibitory Concentration
Experimental: as §1

Mic. flavus = assay: antimicrobial spectrum, broth dilution method; type: cell-based; conditions: Micrococcus flavus; broth dilution; read-out: Minimum Inhibitory Concentration
Experimental: as §1

Staph. aureus FDA 209P = assay: antimicrobial spectrum, broth dilution method; type: cell-based; conditions: Staphylococcus aureus, FDA209P; broth dilution; read-out: Minimum Inhibitory Concentration
Experimental: as §1

[8] = test system: Mycobact. smegmatis ATCC 607; assay: antimicrobial spectrum, broth dilution method; type: cell-based; conditions: broth dilution; read-out: Minimum Inhibitory Concentration
Experimental: as §1

Sar. lutea ATCC 9341 = assay: antimicrobial spectrum, broth dilution method; type: cell-based; conditions: Micrococcus luteus, ATCC9341; broth dilution; read-out: Minimum Inhibitory Concentration
Experimental: as §1

B. cereus ATCC 9634 = assay: antimicrobial spectrum, broth dilution method; type: cell-based; conditions: Bacillus cereus, ATCC9634; broth dilution; read-out: Minimum Inhibitory Concentration
Experimental: as §1

Cory. bovis 1810 = assay: antimicrobial spectrum, broth dilution method; type: cell-based; conditions: Corynebacterium bovis, 1810; broth dilution; read-out: Minimum Inhibitory Concentration
Experimental: as §1

[9] = test system: Kl. pneumoniae ATCC 10031; assay: antimicrobial spectrum, broth dilution method; type: cell-based; conditions: Klebsiella pneumoniae, ATCC10031; broth dilution; read-out: Minimum Inhibitory Concentration
Experimental: as §1

Ps. aeruginosa A20229 = assay: antimicrobial spectrum, broth dilution method; type: cell-based; conditions: Pseudomonas aeruginosa, A20229; broth dilution; read-out: Minimum Inhibitory Concentration
Experimental: as §1

Diplo. pneumoniae Type 3 = assay: antimicrobial spectrum, broth dilution method; type: cell-based; conditions: Streptococcus pneumoniae, TYPE3; broth dilution; read-out: Minimum Inhibitory Concentration
Experimental: as §1

St. pyogenes NY 5 = assay: antimicrobial spectrum, broth dilution method; type: cell-based; conditions: Streptococcus pyogenes, NY5; broth dilution; read-out: Minimum Inhibitory Concentration
Experimental: as §1

Can tropicalis IAM 4924 = assay: antimicrobial spectrum, broth dilution method; type: cell-based; conditions: broth dilution; read-out: Minimum Inhibitory Concentration
Experimental: as §1

[10] = test system: Protein synthesis (L1210 cells); assay: cells; type: cell-based, mice; conditions: Mus musculus, L1210, 1 h; 14C-precursor incorporation, 37° C., 60 min.; read-out: ID50, Protein synthesis
L1210 cells = assay: cells; type: cell-based, mice; conditions: 3 days
[11] = test system: RNA synthesis (L1210 cells); assay: cells; type: cell-based, mice

CCC1(O)CC(OC2CC(N(C)C)C(OC3CC(O)C(OC4CCC(=O)C(C)O4)C(C)O3)C(C)O2)c2c(cc3c(c2O)C(=O)c2c(O)cccc2C3=O)C1C(=O)OC (centres unmarked) [Aclacinomycin A]
antitumor activity (in words) (various animal tumors): marked inhibitory effects; also recorded: potent antitumor activity
antimicrobial activity [1]: effective in preventing the growth; also recorded: strong antimicrobial activity
lethal dose (LD50), in words (Rat): high lethal dose
LD50 ([2]; ip, intraperitoneal): 25 to 50 mg/kg
LD50 ([2]; intravenous): 32.5 mg/kg
inhibition of growth of lymphoma 6C3HED (lymphoma 6C3HED): effective in inhibiting the growth
life prolongation, mice inoculated with lymphoma 6C3HED (lymphoma 6C3HED): markedly prolong the lives
inhibition of growth of tumor cells in culture (in words) [3]: remarkable inhibitory effect
basicity [4]: weakly basic
inhibition of growth of leukemia P388 (leukemia P388): effective in inhibiting the growth
life prolongation, mice inoculated with leukemia P388 (leukemia P388): markedly prolong the lives
inhibition of nucleic acid biosynthesis [5]: over 50%
inhibition of growth of vaccinia virus (in words) (Vaccinia virus; HeLa cells): effective in inhibiting the growth
IC50 (Vaccinia virus; Orthopoxvirus vaccinia, HeLa, read-out: ID50, Vaccinia virus): < 10 µg/mL
solubility in low polar solvents (solubility; ether, hexane, cyclohexane, petroleum ether as listed): insoluble
solubility in organic solvents (solubility; methanol, ethanol, chloroform, ethyl acetate, acetone etc.): soluble
solubility in water (solubility; water): slightly soluble
T/C ([6]; 0.5 mg./kg./day i.p.): 230%
30 day survivors ([6]; 0.5 mg./kg./day i.p.): 2/4
Mean survival time ([6]; 0.5 mg./kg./day i.p.): 23.0 days
T/C ([6]; 1.0 mg./kg./day i.p.): 280%
30 day survivors ([6]; 1.0 mg./kg./day i.p.): 3/4
Mean survival time ([6]; 1.0 mg./kg./day i.p.): 28.0 days
T/C ([6]; 2.0 mg./kg./day i.p.): 300%
30 day survivors ([6]; 2.0 mg./kg./day i.p.): 4/4
Mean survival time ([6]; 2.0 mg./kg./day i.p.): 30.0 days
T/C ([6]; 4.0 mg./kg./day i.p.): 215%
30 day survivors ([6]; 4.0 mg./kg./day i.p.): 1/4
Mean survival time ([6]; 4.0 mg./kg./day i.p.): 21.5 days
survival time prolonged, rate compared with control mice ([6]; dosage range 0.5 to 5 mg./kg. per day, i.p. daily for 10 days): over 150%
MIC (Can. albicans IAM 4905): 10 µg/mL (≈ 12.3 µM)
MIC (Strept. faecalis): 2.5 µg/mL (≈ 3.08 µM)
MIC (B. megaterium): < 0.63 µg/mL
MIC [7]: < 0.2 µg/mL
MIC (Staph. aureus Smith): < 0.2 µg/mL
MIC (Diplo. pneumoniae Type 1): 0.63 µg/mL (≈ 0.776 µM)
MIC (E. coli K12): > 100 µg/mL
MIC (Mic. flavus): < 0.2 µg/mL
MIC (Staph. aureus FDA 209P): < 0.63 µg/mL
MIC [8]: 2.5 µg/mL (≈ 3.08 µM)
MIC (Sar. lutea ATCC 9341): < 0.2 µg/mL
MIC (B. cereus ATCC 9634): < 0.2 µg/mL
MIC (Cory. bovis 1810): < 0.2 µg/mL
MIC [9]: > 100 µg/mL
MIC (Ps. aeruginosa A20229): > 100 µg/mL
MIC (Diplo. pneumoniae Type 3): 0.63 µg/mL (≈ 0.776 µM)
MIC (St. pyogenes NY 5): 1.25 µg/mL (≈ 1.54 µM)
MIC (Can tropicalis IAM 4924): 20 µg/mL (≈ 24.6 µM)
IC50 [10]: 6.3 µg/mL (≈ 7.76 µM)
IC50 (L1210 cells; Mus musculus, L1210, 72 h, 37° C., read-out: ID50, growth): 0.12 µg/mL (≈ 0.148 µM)
inhibition of cell growth (L1210 cells; below 1 mcg./ml. in the medium): over 50%
inhibition of RNA synthesis (in words) [11]: specific inhibition on RNA synthesis
IC50 ([11]; Mus musculus, L1210, 1 h, 14C-precursor incorporation, 37° C., 60 min., read-out: ID50, RNA synthesis): 0.1 µg/mL (≈ 0.123 µM)
